Results taken from the supplement of paper PMC11281043.
± gives the standard deviation of the averaged measurements.

Key:
Danio rerio embryo/larva [1] = test: BMC swim bladder non-inflation; higher = less potent; details: exposure: 6-8 hpf to 5 dpf, scored at 6 dpf
Method in brief: (§1)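 Wild-type zebrafish embryos with chorions were put one per well in 200 μL 10% Hanks' at 6–8 hpf, dosed with an 8-point half-log DMSO series (0.4% DMSO final), and held in sealed plates at 26 °C with n = 6 per concentration, then rinsed at 5 dpf and scored at 6 dpf. Two blinded assessors recorded mortality, hatching and malformations as unnormalised percentages of living larvae affected, with mortality given as percent dead. Benchmark concentration was fitted in tcpl with bounded models, keeping the model with the lowest AIC. The benchmark response was set at 1.349 × baseline standard deviation.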

Danio rerio embryo/larva [2] = test: max % larvae with any abnormality across tested concentrations; max tested concentration (log10 uM): 2; higher = more toxic; extreme values may be limits of the assay; details: exposure: 6-8 hpf to 5 dpf, scored at 6 dpf
Danio rerio embryo/larva [3] = test: max % larvae unhatched across tested concentrations; max tested concentration (log10 uM): 2; higher = more toxic; details: exposure: 6-8 hpf to 5 dpf, scored at 6 dpf
Danio rerio embryo/larva [4] = test: BMC edema; higher = less potent; details: exposure: 6-8 hpf to 5 dpf, scored at 6 dpf
Method in brief: as §1

Danio rerio embryo/larva [5] = test: max % larvae dead across tested concentrations; max tested concentration (log10 uM): 2; higher = more toxic; extreme values may be limits of the assay; details: exposure: 6-8 hpf to 5 dpf, scored at 6 dpf
Danio rerio embryo/larva [6] = test: BMC any abnormality; max tested concentration (log10 uM): 2; higher = less potent; details: exposure: 6-8 hpf to 5 dpf, scored at 6 dpf
Method in brief: as §1

Danio rerio embryo/larva [7] = test: BMC blood pooling; max tested concentration (log10 uM): 2; higher = less potent; details: exposure: 6-8 hpf to 5 dpf, scored at 6 dpf
Protocol: (§2)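 Zebrafish embryos (with chorion) were exposed from 6-8 hpf to each PFAS (8-point half-log series, top concentration up to 100 uM, 0.4% DMSO, sealed plates, 26 C; n = 6 embryos per concentration), rinsed at 5 dpf and scored at 6 dpf by two blinded observers for mortality, hatching and malformations. Endpoint scores are the % of living larvae affected (dead larvae excluded; […]). Curves were fitted with tcpl (cutoff 16%), and the BMC is the concentration at a benchmark response of 21.6%.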

Danio rerio embryo/larva [8] = test: max % larvae dead across tested concentrations; max tested concentration (log10 uM): 1.60206; higher = more toxic; extreme values may be limits of the assay; details: exposure: 6-8 hpf to 5 dpf, scored at 6 dpf
Danio rerio embryo/larva [9] = test: max % larvae with any abnormality across tested concentrations; max tested concentration (log10 uM): 1.60206; higher = more toxic; extreme values may be limits of the assay; details: exposure: 6-8 hpf to 5 dpf, scored at 6 dpf
Danio rerio embryo/larva [10] = test: BMC mortality; max tested concentration (log10 uM): 1.60206; higher = less potent; details: exposure: 6-8 hpf to 5 dpf, scored at 6 dpf
Protocol: as §2

Danio rerio embryo/larva [11] = test: BMC any abnormality; max tested concentration (log10 uM): 1.60206; higher = less potent; details: exposure: 6-8 hpf to 5 dpf, scored at 6 dpf
Protocol: as §2

Danio rerio embryo/larva [12] = test: max % larvae unhatched across tested concentrations; max tested concentration (log10 uM): 1.60206; higher = more toxic; details: exposure: 6-8 hpf to 5 dpf, scored at 6 dpf
Danio rerio embryo/larva [13] = test: BMC spinal defects; higher = less potent; details: max tested concentration (log10 uM): 2; exposure: 6-8 hpf to 5 dpf, scored at 6 dpf
Protocol: as §2

Danio rerio embryo/larva [14] = test: BMC craniofacial defects; higher = less potent; details: exposure: 6-8 hpf to 5 dpf, scored at 6 dpf
Protocol: as §2

Danio rerio embryo/larva [15] = test: BMC abnormal position; higher = less potent; details: exposure: 6-8 hpf to 5 dpf, scored at 6 dpf
Protocol: as §2

Danio rerio embryo/larva [16] = test: BMC tail defects; max tested concentration (log10 uM): 2; higher = less potent; details: exposure: 6-8 hpf to 5 dpf, scored at 6 dpf
Protocol: as §2

Danio rerio embryo/larva [17] = test: BMC mortality; max tested concentration (log10 uM): 2; higher = less potent; details: exposure: 6-8 hpf to 5 dpf, scored at 6 dpf
Protocol: as §2

Danio rerio embryo/larva [18] = test: max % larvae with any abnormality across tested concentrations; max tested concentration (log10 uM): 1.30103; higher = more toxic; extreme values may be limits of the assay; details: exposure: 6-8 hpf to 5 dpf, scored at 6 dpf
Danio rerio embryo/larva [19] = test: max % larvae unhatched across tested concentrations; max tested concentration (log10 uM): 1.30103; higher = more toxic; details: exposure: 6-8 hpf to 5 dpf, scored at 6 dpf
Danio rerio embryo/larva [20] = test: max % larvae dead across tested concentrations; max tested concentration (log10 uM): 1.30103; higher = more toxic; extreme values may be limits of the assay; details: exposure: 6-8 hpf to 5 dpf, scored at 6 dpf
Danio rerio embryo/larva [21] = test: BMC tail defects; max tested concentration (log10 uM): 1.90309; higher = less potent; details: exposure: 6-8 hpf to 5 dpf, scored at 6 dpf
Protocol: as §2

Danio rerio embryo/larva [22] = test: max % larvae unhatched across tested concentrations; max tested concentration (log10 uM): 1.90309; higher = more toxic; details: exposure: 6-8 hpf to 5 dpf, scored at 6 dpf
Danio rerio embryo/larva [23] = test: BMC any abnormality; max tested concentration (log10 uM): 1.90309; higher = less potent; details: exposure: 6-8 hpf to 5 dpf, scored at 6 dpf
Protocol: as §2

Danio rerio embryo/larva [24] = test: BMC blood pooling; max tested concentration (log10 uM): 1.90309; higher = less potent; details: exposure: 6-8 hpf to 5 dpf, scored at 6 dpf
Protocol: as §2

Danio rerio embryo/larva [25] = test: max % larvae with any abnormality across tested concentrations; max tested concentration (log10 uM): 1.90309; higher = more toxic; extreme values may be limits of the assay; details: exposure: 6-8 hpf to 5 dpf, scored at 6 dpf
[26] = max tested concentration (log10 uM): 2
[27] = max tested concentration (log10 uM): 1.90309

Structure (SMILES)	BMC swim bladder non-inflation (Danio rerio embryo/larva [1]; [26])	max % larvae (Danio rerio embryo/larva [2])	max % larvae unhatched across tested concentrations (Danio rerio embryo/larva [3])	BMC edema (Danio rerio embryo/larva [4]; [26])	BMC any abnormality (Danio rerio embryo/larva [6])	BMC blood pooling (Danio rerio embryo/larva [7])	BMC spinal defects (Danio rerio embryo/larva [13])	BMC abnormal position (Danio rerio embryo/larva [15]; [26])	max % larvae (Danio rerio embryo/larva [18])	max % larvae unhatched across tested concentrations (Danio rerio embryo/larva [19])	other results
O=S(=O)(OCC(F)(F)F)C(F)(F)C(F)(F)C(F)(F)C(F)(F)F [2,2,2-Trifluoroethyl perfluorobutanesulfonate]	77 µM	95.5%	0%	32.7 µM	29.4 µM	35.5 µM					max % larvae dead across tested concentrations (Danio rerio embryo/larva [5]): 0%
NCC(F)(F)C(F)(F)C(F)(F)C(F)(F)C(F)(F)C(F)(F)C(F)(F)C(F)(F)F [1H,1H-Perfluorononylamine]											max % larvae dead across tested concentrations (Danio rerio embryo/larva [8]): 66.7%; max % larvae (Danio rerio embryo/larva [9]): 100%; BMC mortality (Danio rerio embryo/larva [10]): 29.9 µM; BMC any abnormality (Danio rerio embryo/larva [11]): 27.2 µM; max % larvae unhatched across tested concentrations (Danio rerio embryo/larva [12]): 0%
FC(F)(I)C(F)(F)C(F)(F)C(F)(F)C(F)(F)C(F)(F)I [1,6-Diiodoperfluorohexane]	6.49 ± 3.8 µM	100%	0%	6.97 ± 5.2 µM	5.18 ± 4.7 µM	14.5 ± 16 µM	7.34 µM	14.9 ± 17 µM			BMC craniofacial defects (Danio rerio embryo/larva [14]; [26]): 26.4 ± 3.9 µM
O=S(=O)(O)C(F)(F)C(F)(F)C(F)(F)C(F)(F)C(F)(F)C(F)(F)C(F)(F)C(F)(F)F [Potassium perfluorooctanesulfonate]	2.81 µM	100%	0%	4.65 µM	2.77 µM	10.5 µM	26 µM	3.99 µM			BMC tail defects (Danio rerio embryo/larva [16]): 27.8 µM; BMC craniofacial defects (Danio rerio embryo/larva [14]; [26]): 8.25 µM
O=S(=O)(Cl)C(F)(F)C(F)(F)C(F)(F)C(F)(F)C(F)(F)C(F)(F)C(F)(F)C(F)(F)F [Perfluoro-1-octanesulfonyl chloride]	10.4 µM	100%	0%	29.4 µM	10.4 µM		95.8 µM	92 µM			BMC mortality (Danio rerio embryo/larva [17]): 77.9 µM; max % larvae dead across tested concentrations (Danio rerio embryo/larva [5]): 83.3%
OCC(F)(F)C(F)(F)C(F)(F)C(F)(F)C(F)(F)C(F)(F)C(F)(F)C(F)(F)C(F)(F)C(F)(F)C(F)(F)F [11:1 Fluorotelomer alcohol]									8.33%	0%	
CCCCCCCCC(F)(F)C(F)(F)C(F)(F)C(F)(F)C(F)(F)C(F)(F)F [1-(Perfluorohexyl)octane]											max % larvae dead across tested concentrations (Danio rerio embryo/larva [8]): 0%; max % larvae (Danio rerio embryo/larva [9]): 0%; max % larvae unhatched across tested concentrations (Danio rerio embryo/larva [12]): 0%
O=C(O)C(F)(F)C(F)(F)C(F)(F)C(F)(F)C(F)(F)C(F)(F)C(F)(F)C(F)(F)C(F)(F)C(F)(F)C(F)(F)C(F)(F)F [Perfluorotridecanoic acid]									16.7%	0%	max % larvae dead across tested concentrations (Danio rerio embryo/larva [20]): 0%
O=C(O)C(F)(F)C(F)(F)C(F)(F)C(F)(F)C(F)(F)C(F)(F)C(F)(F)C(F)(F)C(F)(F)C(F)(F)C(F)(F)C(F)(F)C(F)(F)F [Perfluorotetradecanoic acid]									12.5%	0%	max % larvae dead across tested concentrations (Danio rerio embryo/larva [20]): 0%
O=S(=O)(O)C(F)(F)C(F)(F)C(F)(F)C(F)(F)C(F)(F)C(F)(F)C(F)(F)F [Perfluoroheptanesulfonic acid]											BMC swim bladder non-inflation (Danio rerio embryo/larva [1]; [27]): 15.6 µM; BMC craniofacial defects (Danio rerio embryo/larva [14]; [27]): 18.1 µM; BMC abnormal position (Danio rerio embryo/larva [15]; [27]): 17.7 µM; BMC tail defects (Danio rerio embryo/larva [21]): 27 µM; max % larvae unhatched across tested concentrations (Danio rerio embryo/larva [22]): 0%; BMC edema (Danio rerio embryo/larva [4]; [27]): 18.5 µM; BMC any abnormality (Danio rerio embryo/larva [23]): 15.6 µM; BMC blood pooling (Danio rerio embryo/larva [24]): 61 µM; max % larvae (Danio rerio embryo/larva [25]): 100%
